In PubChem BioAssay (NCI):
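These data come from cells grown in 96-well plates and exposed to compound for 48 hours at five concentrations. TGI denotes the concentration required for complete inhibition of growth.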

Experiments:
Test in all cases: DTP human tumour cell line panel, 48 h
SR leukemia = tested on: SR leukemia
ACHN renal = tested on: ACHN renal
SNB-75 CNS = tested on: SNB-75 CNS
DLD-1 colon = tested on: DLD-1 colon
MALME-3M melanoma = tested on: MALME-3M melanoma
SF-295 CNS = tested on: SF-295 CNS
HCT-15 colon = tested on: HCT-15 colon
COLO 205 colon = tested on: COLO 205 colon
UACC-257 melanoma = tested on: UACC-257 melanoma
MOLT-4 leukemia = tested on: MOLT-4 leukemia
SK-MEL-5 melanoma = tested on: SK-MEL-5 melanoma
HOP-62 NSCLC = tested on: HOP-62 NSCLC
DMS 114 small cell lung = tested on: DMS 114 small cell lung
XF 498 CNS = tested on: XF 498 CNS
A498 renal = tested on: A498 renal
LOX IMVI melanoma = tested on: LOX IMVI melanoma
SK-MEL-28 melanoma = tested on: SK-MEL-28 melanoma
A549 NSCLC = tested on: A549 NSCLC
NCI-H460 lung = tested on: NCI-H460 lung
RPMI-8226 leukemia = tested on: RPMI-8226 leukemia
HCC-2998 colon = tested on: HCC-2998 colon
SF-268 CNS = tested on: SF-268 CNS
KM12 colon = tested on: KM12 colon
M14 melanoma = tested on: M14 melanoma
SN12C renal = tested on: SN12C renal
NCI-H522 lung = tested on: NCI-H522 lung
RXF-631 renal = tested on: RXF-631 renal
OVCAR-5 ovarian = tested on: OVCAR-5 ovarian
HOP-92 NSCLC = tested on: HOP-92 NSCLC
DMS 273 small cell lung = tested on: DMS 273 small cell lung
NCI-H226 lung = tested on: NCI-H226 lung
SNB-19 CNS = tested on: SNB-19 CNS
HL-60(TB) leukemia = tested on: HL-60(TB) leukemia
SK-MEL-2 melanoma = tested on: SK-MEL-2 melanoma
SK-OV-3 ovarian = tested on: SK-OV-3 ovarian
RXF 393 renal = tested on: RXF 393 renal
SW-620 colon = tested on: SW-620 colon
OVCAR-4 ovarian = tested on: OVCAR-4 ovarian
CAKI-1 renal = tested on: CAKI-1 renal
TK-10 renal = tested on: TK-10 renal
LXFL 529 NSCLC = tested on: LXFL 529 NSCLC
HCT-116 colon = tested on: HCT-116 colon
HT29 colon = tested on: HT29 colon
786-0 renal = tested on: 786-0 renal
M19-MEL melanoma = tested on: M19-MEL melanoma
EKVX NSCLC = tested on: EKVX NSCLC
CCRF-CEM leukemia = tested on: CCRF-CEM leukemia
SF-539 CNS = tested on: SF-539 CNS
SNB-78 CNS = tested on: SNB-78 CNS
KM20L2 colon = tested on: KM20L2 colon
K-562 leukemia = tested on: K-562 leukemia
OVCAR-8 ovarian = tested on: OVCAR-8 ovarian
IGROV1 ovarian = tested on: IGROV1 ovarian
OVCAR-3 ovarian = tested on: OVCAR-3 ovarian
UACC-62 melanoma = tested on: UACC-62 melanoma
HOP-18 NSCLC = tested on: HOP-18 NSCLC
UO-31 renal = tested on: UO-31 renal
NCI-H23 lung = tested on: NCI-H23 lung
U251 CNS = tested on: U251 CNS

Measured: TGI

O=C(NN1C(=O)CS(=O)(=O)C1c1cccc(F)c1)c1ccncc1 (stereo unspecified)
> 100 µM: SR leukemia | ACHN renal | SNB-75 CNS | DLD-1 colon | MALME-3M melanoma | SF-295 CNS | HCT-15 colon | COLO 205 colon | UACC-257 melanoma | MOLT-4 leukemia | SK-MEL-5 melanoma | HOP-62 NSCLC | DMS 114 small cell lung | XF 498 CNS | A498 renal | LOX IMVI melanoma | SK-MEL-28 melanoma | A549 NSCLC | NCI-H460 lung | RPMI-8226 leukemia | HCC-2998 colon | SF-268 CNS | KM12 colon | M14 melanoma | SN12C renal | NCI-H522 lung | RXF-631 renal | OVCAR-5 ovarian | HOP-92 NSCLC | DMS 273 small cell lung | NCI-H226 lung | SNB-19 CNS | HL-60(TB) leukemia | SK-MEL-2 melanoma | SK-OV-3 ovarian | RXF 393 renal | SW-620 colon | OVCAR-4 ovarian | CAKI-1 renal | TK-10 renal | LXFL 529 NSCLC | HCT-116 colon | HT29 colon | 786-0 renal

CC(CC[C@@H](C)C1CCC2[C@@H]3CC(O)C4CC(O)[C@@H](O)C[C@]4(C)C3CC[C@@]21C)C(C)(C)C (stereo partly specified)
> 100 µM: SR leukemia | ACHN renal | SNB-75 CNS | M19-MEL melanoma | DLD-1 colon | EKVX NSCLC | CCRF-CEM leukemia | SF-539 CNS | MALME-3M melanoma | SNB-78 CNS | SF-295 CNS | HCT-15 colon | COLO 205 colon | UACC-257 melanoma | MOLT-4 leukemia | KM20L2 colon | SK-MEL-5 melanoma | HOP-62 NSCLC | DMS 114 small cell lung | XF 498 CNS | A498 renal | LOX IMVI melanoma | SK-MEL-28 melanoma | A549 NSCLC | NCI-H460 lung | RPMI-8226 leukemia | HCC-2998 colon | K-562 leukemia | SF-268 CNS | OVCAR-8 ovarian | KM12 colon | IGROV1 ovarian | OVCAR-3 ovarian | M14 melanoma | SN12C renal | OVCAR-5 ovarian | UACC-62 melanoma | HOP-18 NSCLC | HOP-92 NSCLC | DMS 273 small cell lung | NCI-H226 lung | UO-31 renal | SNB-19 CNS | HL-60(TB) leukemia | SK-MEL-2 melanoma | SK-OV-3 ovarian | RXF 393 renal | SW-620 colon | OVCAR-4 ovarian | CAKI-1 renal | NCI-H23 lung | TK-10 renal | LXFL 529 NSCLC | HCT-116 colon | HT29 colon | U251 CNS | 786-0 renal
